Measured values: ChEMBL document CHEMBL3046756, “Synthesis, anti-inflammatory, and structure antioxidant activity relationship of novel 4-quinazoline” (Med Chem Res, 2013)
Activity calls are given as the source filed them. The rule behind the calls is not given here.

Columns and labels:
Assay type in all cases: functional
Rattus norvegicus [1] = assay: Effect on ALP level in Wistar Rattus norvegicus (rat) serum at 100 mg/kg, po qd after 10 days (reference value: 39.5 +/- 3.86 U/I)
Rattus norvegicus [2] = assay: Anti-inflammatory activity in Wistar Rattus norvegicus (rat) assessed as inhibition of carrageenan-induced paw edema at 100 mg/kg, po administered 30 min prior to carrageenan challenge measured at 120 min relative to untreated control
Rattus norvegicus [3] = assay: Effect on ALP level in Wistar Rattus norvegicus (rat) serum at 150 mg/kg, po qd after 10 days (reference value: 39.5 +/- 3.86 U/I)
Rattus norvegicus [4] = assay: Effect on TBARS level in Wistar Rattus norvegicus (rat) serum at 50 mg/kg, po qd after 10 days (reference value: 0.82 +/- 0.073 nmol/ml)
[5] = tested on: Radical scavenging activity; assay: Antioxidant activity assessed as DPPH free radical scavenging activity at 6 mg/ml after 5 to 60 min by spectrophotometric analysis
Rattus norvegicus [6] = assay: Effect on glutathione reductase level in Wistar Rattus norvegicus (rat) liver measured NADPH oxidized per min per mg of protein at 100 mg/kg, po after 10 days (reference value: 4.19 +/ 0.42 nmol)
Rattus norvegicus [7] = assay: Effect on SGOT level in Wistar Rattus norvegicus (rat) at 150 mg/kg, po qd after 10 days (reference value: 145.50 +/- 13.86 U/I)
Rattus norvegicus [8] = assay: Effect on SGOT level in Wistar Rattus norvegicus (rat) at 100 mg/kg, po qd after 10 days (reference value: 145.50 +/- 13.86 U/I)
Rattus norvegicus [9] = assay: Effect on glutathione peroxidase level in Wistar Rattus norvegicus (rat) liver measured GSH oxidized per min per mg of protein at 50 mg/kg, po after 10 days (reference value: 47.47 +/- 3.86 mmol)
Rattus norvegicus [10] = assay: Antipyretic activity in Wistar Rattus norvegicus (rat) assessed as decrease in Brewer's yeast solution-induced hyperthermia at 150 mg/kg, po measured after 1 hr (reference value: 37 +/- 3.55 degC)
Rattus norvegicus [11] = assay: Effect on GSH level in Wistar Rattus norvegicus (rat) liver measured per mg of protein at 100 mg/kg, po after 10 days (reference value: 1.84 +/- 0.092 mg)
Rattus norvegicus [12] = assay: Effect on gamma-glutamyl transferase level in Wistar Rattus norvegicus (rat) serum at 50 mg/kg, po qd after 10 days (reference value: 0.57 +/- 0.04 U/I)
Rattus norvegicus [13] = assay: Effect on SGPT level in Wistar Rattus norvegicus (rat) at 50 mg/kg, po qd after 10 days (reference value: 38.77 +/- 4.25 U/I)
Rattus norvegicus [14] = assay: Effect on GST level in Wistar Rattus norvegicus (rat) liver measured CDNB conjugated per min per mg of protein at 100 mg/kg, po after 10 days (reference value: 0.86 +/- 0.08 mmol)
Rattus norvegicus [15] = assay: Antipyretic activity in Wistar Rattus norvegicus (rat) assessed as decrease in Brewer's yeast solution-induced hyperthermia at 100 mg/kg, po measured after 3 hr (reference value: 36.8 +/- 1.9 degC)
Rattus norvegicus [16] = assay: Anti-inflammatory activity in Wistar Rattus norvegicus (rat) assessed as inhibition of carrageenan-induced paw edema at 50 mg/kg, po administered 30 min prior to carrageenan challenge measured at 30 min post carrageenan challenge relative to untreated control
Rattus norvegicus [17] = assay: Anti-inflammatory activity in Wistar Rattus norvegicus (rat) assessed as inhibition of carrageenan-induced paw edema at 100 mg/kg, po administered 30 min prior to carrageenan challenge measured at 90 min relative to untreated control
Rattus norvegicus [18] = assay: Anti-inflammatory activity in Wistar Rattus norvegicus (rat) assessed as inhibition of carrageenan-induced paw edema at 50 mg/kg, po administered 30 min prior to carrageenan challenge measured at 90 min relative to untreated control
Rattus norvegicus [19] = assay: Effect on SGPT level in Wistar Rattus norvegicus (rat) at 100 mg/kg, po qd after 10 days (reference value: 38.77 +/- 4.25 U/I)
Rattus norvegicus [20] = assay: Effect on LDH level in Wistar Rattus norvegicus (rat) serum at 150 mg/kg, po qd after 10 days (reference value: 249.89 +/- 13.26 U/I)
Rattus norvegicus [21] = assay: Anti-inflammatory activity in Wistar Rattus norvegicus (rat) assessed as inhibition of carrageenan-induced paw edema at 100 mg/kg, po administered 30 min prior to carrageenan challenge measured at 30 min post carrageenan challenge relative to untreated control
Rattus norvegicus [22] = assay: Effect on glutathione reductase level in Wistar Rattus norvegicus (rat) liver measured NADPH oxidized per min per mg of protein at 50 mg/kg, po after 10 days (reference value: 4.19 +/ 0.42 nmol)
Rattus norvegicus [23] = assay: Anti-inflammatory activity in Wistar Rattus norvegicus (rat) assessed as inhibition of carrageenan-induced paw edema at 50 mg/kg, po administered 30 min prior to carrageenan challenge measured at 180 min relative to untreated control
Rattus norvegicus [24] = assay: Antipyretic activity in Wistar Rattus norvegicus (rat) assessed as decrease in Brewer's yeast solution-induced hyperthermia at 50 mg/kg, po measured after 1 hr (reference value: 37 +/- 3.55 degC)
Rattus norvegicus [25] = assay: Anti-inflammatory activity in Wistar Rattus norvegicus (rat) assessed as inhibition of carrageenan-induced paw edema at 150 mg/kg, po administered 30 min prior to carrageenan challenge measured at 90 min relative to untreated control
Rattus norvegicus [26] = assay: Anti-inflammatory activity in Wistar Rattus norvegicus (rat) assessed as inhibition of carrageenan-induced paw edema at 100 mg/kg, po administered 30 min prior to carrageenan challenge measured at 180 min relative to untreated control
Rattus norvegicus [27] = assay: Anti-inflammatory activity in Wistar Rattus norvegicus (rat) assessed as inhibition of carrageenan-induced paw edema at 150 mg/kg, po administered 30 min prior to carrageenan challenge measured at 120 min relative to untreated control
Rattus norvegicus [28] = assay: Antipyretic activity in Wistar Rattus norvegicus (rat) assessed as decrease in Brewer's yeast solution-induced hyperthermia at 100 mg/kg, po measured after 2 hr (reference value: 37 +/- 1.7 degC)
Rattus norvegicus [29] = assay: Effect on gamma-glutamyl transferase level in Wistar Rattus norvegicus (rat) serum at 150 mg/kg, po qd after 10 days (reference value: 0.57 +/- 0.04 U/I)
Rattus norvegicus [30] = assay: Antipyretic activity in Wistar Rattus norvegicus (rat) assessed as decrease in Brewer's yeast solution-induced hyperthermia at 150 mg/kg, po measured after 2 hr (reference value: 37 +/- 1.7 degC)
Rattus norvegicus [31] = assay: Antipyretic activity in Wistar Rattus norvegicus (rat) assessed as decrease in Brewer's yeast solution-induced hyperthermia at 50 mg/kg, po measured after 3 hr (reference value: 36.8 +/- 1.9 degC)
Rattus norvegicus [32] = assay: Antipyretic activity in Wistar Rattus norvegicus (rat) assessed as decrease in Brewer's yeast solution-induced hyperthermia at 100 mg/kg, po measured after 1 hr (reference value: 37 +/- 3.55 degC)

| SMILES | Activity (Rattus norvegicus [1]) [U/L] | inhibition in vivo at 100 mg/kg (Rattus norvegicus [2]) [%] | Activity (Rattus norvegicus [3]) [U/L] | Activity (Rattus norvegicus [4]) [nmol/mL] | Activity [5] | Activity (Rattus norvegicus [6]) [nmol] | Activity (Rattus norvegicus [7]) [U/L] | Activity (Rattus norvegicus [8]) [U/L] | Activity (Rattus norvegicus [9]) [mmol] | T (Rattus norvegicus [10]) [°C] | Activity (Rattus norvegicus [11]) [mg] | Activity (Rattus norvegicus [12]) [U/L] | Activity (Rattus norvegicus [13]) [U/L] | Activity (Rattus norvegicus [14]) [mmol] | T (Rattus norvegicus [15]) [°C] | inhibition in vivo at 50 mg/kg (Rattus norvegicus [16]) [%] | inhibition in vivo at 100 mg/kg (Rattus norvegicus [17]) [%] | inhibition in vivo at 50 mg/kg (Rattus norvegicus [18]) [%] | Activity (Rattus norvegicus [19]) [U/L] | Activity (Rattus norvegicus [20]) [U/L] | also measured |
| --- | --- | --- | --- | --- | --- | --- | --- | --- | --- | --- | --- | --- | --- | --- | --- | --- | --- | --- | --- | --- | --- |
| O=c1c2ccccc2nc2n1NC(c1ccc(O)c(O)c1)C2 (centres undefined) | 35.64 | 54.7 | 37.58 | 0.82 | Active | 4.25 | 134.55 | 136.34 | 49.25 | 37.5 | 1.85 | 0.55 | 41.97 | 1.15 | 36.8 | 1.28 | 45.9 | 39.5 | 36.15 | 238.21 | inhibition in vivo at 100 mg/kg (Rattus norvegicus [21]): 4.58%; Activity (Rattus norvegicus [22]): 4.33 nmol; inhibition in vivo at 50 mg/kg (Rattus norvegicus [23]): 47%; T (Rattus norvegicus [24]): 37.6 °C; inhibition in vivo at 150 mg/kg (Rattus norvegicus [25]): 44.2%; inhibition in vivo at 100 mg/kg (Rattus norvegicus [26]): 48.3%; inhibition in vivo at 150 mg/kg (Rattus norvegicus [27]): 58.2%; T (Rattus norvegicus [28]): 36 °C; Activity (Rattus norvegicus [29]): 0.5 U/L; T (Rattus norvegicus [30]): 37 °C; T (Rattus norvegicus [31]): 36.1 °C; T (Rattus norvegicus [32]): 37.8 °C |
| COC(=O)c1ccccc1NC(=O)/C=C/c1ccc(O)c(O)c1 | 35.64 | 64.3 | 31.17 | 0.77 | Active | 5.59 | 129.32 | 133.79 | 49.11 | 36.9 | 2.39 | 0.53 | 42.47 | 1.54 | 36.8 | 24.7 | 49.3 | 53.1 | 43.21 | 232.48 | inhibition in vivo at 100 mg/kg (Rattus norvegicus [21]): 26.8%; Activity (Rattus norvegicus [22]): 4.85 nmol; inhibition in vivo at 50 mg/kg (Rattus norvegicus [23]): 65.3%; T (Rattus norvegicus [24]): 37.7 °C; inhibition in vivo at 150 mg/kg (Rattus norvegicus [25]): 62.6%; inhibition in vivo at 100 mg/kg (Rattus norvegicus [26]): 70.7%; inhibition in vivo at 150 mg/kg (Rattus norvegicus [27]): 76%; T (Rattus norvegicus [28]): 36.7 °C; Activity (Rattus norvegicus [29]): 0.49 U/L; T (Rattus norvegicus [30]): 36.5 °C; T (Rattus norvegicus [31]): 36.8 °C; T (Rattus norvegicus [32]): 37.2 °C |
